Patent US5707615A, “Method of treating HIV infections with anti-viral formulations” (Merrell Pharmaceuticals Inc., priority 1997, dated 1998)
“And” between values parts separate entries of the source, which are not always exact repeats. Identical values can stand only once.

Key:
MT4 cells = assay: Toxicity to MT4 cells (TD50, Table IV, MTT); assay type: cell-based; conditions: MT4 cells, 7 days, MTT
Procedure: (§1) Various oligomers were dissolved in RPMI and were then assayed for anti-HIV activity by making doubling dilutions of the solutions across a 96 well microtitre plate. To each well were then added 5×10^4 cells and 100 TCID50 of virus and the plates incubated at 37° C. for 7 days. MTT was added to each well and the plates incubated for a further 2 hours. The blue formazan crystals were dissolved using acidic isopropanol, and the absorbance measured at 540 nm.

HIV-I (RF) = assay: Effect of treating HIV-I (RF)-infected cells (C8166) 24 hours post-infection (Example V, Table VII); conditions: for P24 % CONTROL: 8640 min
Procedure: Cells were infected with strain RF or GB8 for 24 hours at 37° C. at a multiplicity of infection of 0.001. Cells were washed three times to remove residual virus and then replated into fresh growth medium. Cells were then treated for 24 and 48 hours post-infection (p.i.) with the indicated concentrations of test compounds. Syncytia and P24 antigen levels were determined on the indicated days p.i. by methods described before.

HIV-I (GB8) [1] = assay: Effect of treating HIV-I (GB8)-infected cells (JM) 48 hours post-infection (Example V, Table VIII); assay type: cell-based; conditions: for P24 / P24 % CONTROL: day 6 p.i.
HIV-I (GB8) [2] = assay: Pretreatment of JM cells and block of HIV-I (GB8) infection (Example IV); conditions: pretreated overnight at 20 μg/mL; for MEAN SYNCYTIA: 2 days; for P24 % / SYNCYTIA %: % of control, 2880 min
Procedure: JM cells were pretreated overnight at 37° C. with different compounds at 20 μg/mL or left untreated. The cells were washed 3 times in RPMI medium and then infected with HIV-I (GB8) for 2 hours at room temperature. The cells were again washed 3 times in RPMI medium and resuspended in fresh medium prior to being distributed into duplicate wells and incubated at 37° C. After 2 days syncytia were scored and the cell free supernatant fluid harvested and assayed for P24 viral core antigen using the Coulter™ HIV antigen assay.

HIV strain RF = assay: Ability to prevent virus-induced cell death using MT4 cells and strain RF (Example III); assay type: cell-based; conditions: MT4 cells, 7 days, MTT, 10080 min
Procedure: as §1

HIV-I, GB8 = assay: Ability to prevent syncytia formation and expression of P24 viral core antigen using JM cells and GB8 virus strain (Example I); assay type: cell-based; conditions: for P24 % CONTROL: 4320 min; for SYNCYTIA: after 3 days
Procedure: The virus was first incubated with an oligomer for 15 minutes and then the cells were added. After 2 hours adsorption, the virus innoculum was removed and the cells were washed three times to remove traces of input virus. Antiviral activity was determined after 3 days incubation by plotting the mean number of syncytia found in quadruple cultures against log10 concentration of anionic polymer or of other test compounds. The potency of an oligomer was also measured by assaying viral core antigen (P24 test-Abbott) in the supernatant fluid. Heparin, dextran sulfate, rs CD4, ATZ and/or ddC data, when included in any of the following Tables, are provided as positive controls.

HIV-I (GB8) [3] = assay: Effect of treating HIV-I (GB8)-infected cells (JM) 24 hours post-infection (Example V, Table VI); assay type: cell-based; conditions: for P24 % CONTROL: 8640 min
GB8 virus in JM cells = assay: Virus infection of JM cells with GB8 in the presence of test compounds: syncytia and P24 (Example II); conditions: Table II; for SYNCYTIA % / P24 %: % of control; for SYNCYTIA %: 2880 min; for P24 %: 5760 min
Procedure: Virus infection of JM cells was carried out in the presence of different concentrations of test compounds. JM cells (1×10^5) and 50-100 syncytial forming units of virus (GB8) were added to duplicate wells of a tissue culture plate containing 1 mL volumes of growth medium with or without drug. The plate was incubated for 2 days at 37° C. and then scored for the presence of syncytia. At the same time the cells were washed and the growth medium replaced. After a further two days incubation, the cell free supernatant fluids were harvested and assayed for levels of P24 viral core antigen using the Coulter™ HIV Antigen assay.

[4] = 0.62 μM, addition 24 hours p.i.
[5] = 1.25 μM, addition 24 hours p.i.
[6] = 1.2 μM, addition 0 hours p.i., single wells
[7] = 0.31 μM, addition 24 hours p.i.

poly{imino[2,2'-disulfo(1,1'-biphenyl)-4,4'-diyl]iminocarbonyl}, alpha-{[(4-methylphenyl)amino]carbonyl}-omega[(4-methylphenyl)amino]- [Example 1A]
TD50 (MT4 cells): > 100 µg/mL
P24 DAY 6 p.i. (HIV-I (RF); [4]): 700000 pg/mL
P24 % CONTROL (HIV-I (RF); [4]): 74%
P24 DAY 6 p.i. (HIV-I (RF); [5]): 1.5e+06 pg/mL
SYNCYTIA/WELL DAY 2 (HIV-I (RF); [5]): 0
P24 % CONTROL (HIV-I (RF); [5]): 100%
SYNCYTIA/WELL DAY 2 (HIV-I (RF); 2.5 μM, addition 24 hours p.i.): 0
SYNCYTIA/WELL DAY 3 (HIV-I (RF); 2.5 μM, addition 24 hours p.i.): 0
P24 % CONTROL (HIV-I (RF); 2.5 μM, addition 24 hours p.i.): 10.2%
P24 DAY 6 p.i. (HIV-I (RF); 5 μM, addition 24 hours p.i.): 9300 pg/mL
SYNCYTIA/WELL DAY 2 (HIV-I (RF); 5 μM, addition 24 hours p.i.): 0
SYNCYTIA/WELL DAY 3 (HIV-I (RF); 5 μM, addition 24 hours p.i.): 0
P24 % CONTROL (HIV-I (RF); 5 μM, addition 24 hours p.i.): 1.0%
P24 DAY 6 p.i. (HIV-I (RF); 10 μM, addition 0 hours p.i.): 16000 pg/mL
SYNCYTIA/WELL DAY 2 (HIV-I (RF); 10 μM, addition 0 hours p.i.): 0
SYNCYTIA/WELL DAY 3 (HIV-I (RF); 10 μM, addition 0 hours p.i.): 0
P24 % CONTROL (HIV-I (RF); 10 μM, addition 0 hours p.i.): 1.7%
P24 DAY 6 p.i. (HIV-I (RF); 10 μM, addition 24 hours p.i.): 9200 pg/mL
SYNCYTIA/WELL DAY 2 (HIV-I (RF); 10 μM, addition 24 hours p.i.): 0
SYNCYTIA/WELL DAY 3 (HIV-I (RF); 10 μM, addition 24 hours p.i.): 0
P24 % CONTROL (HIV-I (RF); 10 μM, addition 24 hours p.i.): 1.0%
P24 (HIV-I (GB8) [1]; 1.2 μM, addition 0 hours p.i.): 450 pg/mL
P24 % CONTROL (HIV-I (GB8) [1]; 1.2 μM, addition 0 hours p.i.): 0.41%
SYNCYTIA/WELL DAY 3 p.i. (HIV-I (GB8) [1]; [6]): 0 SYNCYTIA/WELL
SYNCYTIA/WELL DAY 6 p.i. (HIV-I (GB8) [1]; [6]): 0 SYNCYTIA/WELL
P24 (HIV-I (GB8) [1]; 1.2 μM, addition 48 hours p.i.): 21000 pg/mL
P24 % CONTROL (HIV-I (GB8) [1]; 1.2 μM, addition 48 hours p.i.): 19.0%
SYNCYTIA/WELL DAY 3 p.i. (HIV-I (GB8) [1]; 1.2 μM, addition 48 hours p.i., single wells): 19 SYNCYTIA/WELL and 10 SYNCYTIA/WELL and 12 SYNCYTIA/WELL
effect on cells having preestablished infections (HIV-I (GB8) [1]; summary of studies): cleared cultures of syncytia, stabilized the infection and reduced virus antigen levels
P24 (HIV-I (GB8) [2]): 2623 pg/mL
MEAN SYNCYTIA (HIV-I (GB8) [2]): 14
P24 % (HIV-I (GB8) [2]): 9%
SYNCYTIA % (HIV-I (GB8) [2]): 12%
ED50 (HIV strain RF): 1.6 µg/mL
P24 (HIV-I, GB8; 0.6 μg/mL): 37355 pg/mL
P24 % CONTROL (HIV-I, GB8; 0.6 μg/mL): 0.13%
P24 (HIV-I, GB8; 1.25 μg/mL): 541 pg/mL
P24 % CONTROL (HIV-I, GB8; 1.25 μg/mL): < 0.1%
SYNCYTIA (HIV-I, GB8; 1.25 μg/mL): 0
P24 (HIV-I, GB8; 2.5 μg/mL): 96 pg/mL
P24 % CONTROL (HIV-I, GB8; 2.5 μg/mL): < 0.1%
SYNCYTIA (HIV-I, GB8; 2.5 μg/mL): 0
SYNCYTIA (HIV-I, GB8; 5.0 μg/mL): 0
P24 DAY 6 p.i. (HIV-I (GB8) [3]; [7]): 165000 pg/mL
SYNCYTIA/WELL DAY 3 p.i. (HIV-I (GB8) [3]; [7]): > 50 SYNCYTIA/WELL
P24 % CONTROL (HIV-I (GB8) [3]; [7]): 16.0%
P24 DAY 6 p.i. (HIV-I (GB8) [3]; [4]): 56000 pg/mL
SYNCYTIA/WELL DAY 3 p.i. (HIV-I (GB8) [3]; [4]): < 20 SYNCYTIA/WELL
P24 % CONTROL (HIV-I (GB8) [3]; [4]): 5.4%
P24 DAY 6 p.i. (HIV-I (GB8) [3]; 1.2 μM, addition 24 hours p.i.): 15000 pg/mL
SYNCYTIA/WELL DAY 3 p.i. (HIV-I (GB8) [3]; 1.2 μM, addition 24 hours p.i.): < 10 SYNCYTIA/WELL
P24 % CONTROL (HIV-I (GB8) [3]; 1.2 μM, addition 24 hours p.i.): 1.5%
P24 DAY 6 p.i. (HIV-I (GB8) [3]; 2.5 μM, addition 0 hours p.i.): 420 pg/mL
SYNCYTIA/WELL DAY 3 p.i. (HIV-I (GB8) [3]; 2.5 μM, addition 0 hours p.i.): 0 SYNCYTIA/WELL
P24 % CONTROL (HIV-I (GB8) [3]; 2.5 μM, addition 0 hours p.i.): 0.04%
P24 DAY 6 p.i. (HIV-I (GB8) [3]; 2.5 μM, addition 24 hours p.i.): 12100 pg/mL
SYNCYTIA/WELL DAY 3 p.i. (HIV-I (GB8) [3]; 2.5 μM, addition 24 hours p.i.): 0 SYNCYTIA/WELL
P24 % CONTROL (HIV-I (GB8) [3]; 2.5 μM, addition 24 hours p.i.): 1.2%
SYNCYTIA (2 DAYS) MEAN (GB8 virus in JM cells; 0.01 μg/mL): 60
SYNCYTIA % (GB8 virus in JM cells; 0.01 μg/mL): 143%
P24 (GB8 virus in JM cells; 0.03 μg/mL): 4.3 × 10^5 units/mL
SYNCYTIA (2 DAYS) MEAN (GB8 virus in JM cells; 0.03 μg/mL): 52
SYNCYTIA % (GB8 virus in JM cells; 0.03 μg/mL): 123%
P24 % (GB8 virus in JM cells; 0.03 μg/mL): 100%
P24 (GB8 virus in JM cells; 0.1 μg/mL): 4.0 × 10^5 units/mL
SYNCYTIA (2 DAYS) MEAN (GB8 virus in JM cells; 0.1 μg/mL): 25
SYNCYTIA % (GB8 virus in JM cells; 0.1 μg/mL): 58%
P24 % (GB8 virus in JM cells; 0.1 μg/mL): 100%
P24 (GB8 virus in JM cells; 0.3 μg/mL): 4.0 × 10^4 units/mL
SYNCYTIA (2 DAYS) MEAN (GB8 virus in JM cells; 0.3 μg/mL): 14
SYNCYTIA % (GB8 virus in JM cells; 0.3 μg/mL): 33%
P24 % (GB8 virus in JM cells; 0.3 μg/mL): 11%
P24 (GB8 virus in JM cells; 1 μg/mL): 9.1 × 10^3 units/mL
SYNCYTIA (2 DAYS) MEAN (GB8 virus in JM cells; 1 μg/mL): 0
SYNCYTIA % (GB8 virus in JM cells; 1 μg/mL): 0%
P24 % (GB8 virus in JM cells; 1 μg/mL): 3%
SYNCYTIA (2 DAYS) MEAN (GB8 virus in JM cells; 3 μg/mL): 0
SYNCYTIA % (GB8 virus in JM cells; 3 μg/mL): 0%
SYNCYTIA (2 DAYS) MEAN (GB8 virus in JM cells; 10 μg/mL): 0
SYNCYTIA % (GB8 virus in JM cells; 10 μg/mL): 0%

poly{imino[2,2'-disulfo(1,1'-biphenyl)-4,4'-diyl]iminocarbonyl}, alpha-{[(4-methylphenyl)amino]carbonyl}-omega[(4-methylphenyl)amino]- [Example 1B]
TD50 (MT4 cells): > 100 µg/mL
P24 (HIV-I (GB8) [2]): 2790 pg/mL
MEAN SYNCYTIA (HIV-I (GB8) [2]): 52
P24 % (HIV-I (GB8) [2]): 10%
SYNCYTIA % (HIV-I (GB8) [2]): 44%
ED50 (HIV strain RF): 2.2 µg/mL
P24 (HIV-I, GB8; 0.6 μg/mL): 32820 pg/mL
P24 % CONTROL (HIV-I, GB8; 0.6 μg/mL): 0.1%
P24 (HIV-I, GB8; 1.25 μg/mL): 35890 pg/mL
P24 % CONTROL (HIV-I, GB8; 1.25 μg/mL): < 0.1%
P24 (HIV-I, GB8; 2.5 μg/mL): 365 pg/mL
P24 % CONTROL (HIV-I, GB8; 2.5 μg/mL): < 0.1%
SYNCYTIA (HIV-I, GB8; 2.5 μg/mL): 0
P24 (HIV-I, GB8; 5.0 μg/mL): 465 pg/mL
P24 % CONTROL (HIV-I, GB8; 5.0 μg/mL): < 0.1%
SYNCYTIA (HIV-I, GB8; 5.0 μg/mL): 0
SYNCYTIA (2 DAYS) MEAN (GB8 virus in JM cells; 0.01 μg/mL): 47
SYNCYTIA % (GB8 virus in JM cells; 0.01 μg/mL): 112%
P24 (GB8 virus in JM cells; 0.03 μg/mL): 4.1 × 10^5 units/mL
SYNCYTIA (2 DAYS) MEAN (GB8 virus in JM cells; 0.03 μg/mL): 42
SYNCYTIA % (GB8 virus in JM cells; 0.03 μg/mL): 100%
P24 % (GB8 virus in JM cells; 0.03 μg/mL): 100%
P24 (GB8 virus in JM cells; 0.1 μg/mL): 4.4 × 10^5 units/mL
SYNCYTIA (2 DAYS) MEAN (GB8 virus in JM cells; 0.1 μg/mL): 25
SYNCYTIA % (GB8 virus in JM cells; 0.1 μg/mL): 58%
P24 % (GB8 virus in JM cells; 0.1 μg/mL): 100%
P24 (GB8 virus in JM cells; 0.3 μg/mL): 3.8 × 10^4 units/mL
SYNCYTIA (2 DAYS) MEAN (GB8 virus in JM cells; 0.3 μg/mL): 1
SYNCYTIA % (GB8 virus in JM cells; 0.3 μg/mL): 2%
P24 % (GB8 virus in JM cells; 0.3 μg/mL): 11%
P24 (GB8 virus in JM cells; 1 μg/mL): 1.6 × 10^3 units/mL
SYNCYTIA (2 DAYS) MEAN (GB8 virus in JM cells; 1 μg/mL): 0
SYNCYTIA % (GB8 virus in JM cells; 1 μg/mL): 0%
P24 % (GB8 virus in JM cells; 1 μg/mL): 0.4%
SYNCYTIA (2 DAYS) MEAN (GB8 virus in JM cells; 3 μg/mL): 0
SYNCYTIA % (GB8 virus in JM cells; 3 μg/mL): 0%
SYNCYTIA (2 DAYS) MEAN (GB8 virus in JM cells; 10 μg/mL): 0
SYNCYTIA % (GB8 virus in JM cells; 10 μg/mL): 0%
